The Kinase Knowledgebase extract (Sharma et al. 2016)

Key:
PIK3CG (human) = PIK3CG (human) (UniProt P48736); test: Assessment of PIK3CG Kinase Activity
PIK3CA (human) = PIK3CA (human) (UniProt P42336); test: Assessment of PIK3CA Kinase Activity
PIK3CB (Human) = PIK3CB (Human) (UniProt P42338); test: Assessment of PIK3CB Kinase Activity
PIK3CD (Human) = PIK3CD (Human) (UniProt O00329); test: Assessment of PIK3CD Kinase Activity
Sequence of PIK3CD (Human) (O00329 whole entry, looked up): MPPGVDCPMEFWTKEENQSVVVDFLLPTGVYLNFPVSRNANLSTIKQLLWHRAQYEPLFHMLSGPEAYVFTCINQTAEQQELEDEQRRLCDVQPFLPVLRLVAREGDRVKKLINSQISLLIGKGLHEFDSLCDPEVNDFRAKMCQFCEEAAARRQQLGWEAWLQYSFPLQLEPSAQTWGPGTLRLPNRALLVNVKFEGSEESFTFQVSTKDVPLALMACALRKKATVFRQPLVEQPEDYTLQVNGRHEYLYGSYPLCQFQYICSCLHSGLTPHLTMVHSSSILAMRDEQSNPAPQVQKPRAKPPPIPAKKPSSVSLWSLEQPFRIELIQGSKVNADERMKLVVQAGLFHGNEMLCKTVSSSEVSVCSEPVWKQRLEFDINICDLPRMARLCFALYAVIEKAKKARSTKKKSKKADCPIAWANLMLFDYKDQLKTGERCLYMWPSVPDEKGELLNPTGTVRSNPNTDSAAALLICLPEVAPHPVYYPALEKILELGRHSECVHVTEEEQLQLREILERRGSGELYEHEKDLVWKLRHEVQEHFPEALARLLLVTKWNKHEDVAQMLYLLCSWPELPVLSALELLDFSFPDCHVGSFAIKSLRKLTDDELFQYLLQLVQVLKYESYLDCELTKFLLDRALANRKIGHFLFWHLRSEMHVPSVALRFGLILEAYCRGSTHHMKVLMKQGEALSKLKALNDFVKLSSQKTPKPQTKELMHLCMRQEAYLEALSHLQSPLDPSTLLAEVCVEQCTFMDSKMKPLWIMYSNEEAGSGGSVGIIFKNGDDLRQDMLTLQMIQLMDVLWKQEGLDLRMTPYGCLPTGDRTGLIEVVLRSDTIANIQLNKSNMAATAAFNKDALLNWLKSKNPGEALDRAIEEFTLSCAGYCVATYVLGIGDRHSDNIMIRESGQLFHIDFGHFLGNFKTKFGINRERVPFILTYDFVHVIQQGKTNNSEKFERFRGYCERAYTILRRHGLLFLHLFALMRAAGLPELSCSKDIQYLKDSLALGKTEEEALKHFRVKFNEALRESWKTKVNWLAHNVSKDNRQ

Sequence of PIK3CA (human) (P42336 whole entry, looked up): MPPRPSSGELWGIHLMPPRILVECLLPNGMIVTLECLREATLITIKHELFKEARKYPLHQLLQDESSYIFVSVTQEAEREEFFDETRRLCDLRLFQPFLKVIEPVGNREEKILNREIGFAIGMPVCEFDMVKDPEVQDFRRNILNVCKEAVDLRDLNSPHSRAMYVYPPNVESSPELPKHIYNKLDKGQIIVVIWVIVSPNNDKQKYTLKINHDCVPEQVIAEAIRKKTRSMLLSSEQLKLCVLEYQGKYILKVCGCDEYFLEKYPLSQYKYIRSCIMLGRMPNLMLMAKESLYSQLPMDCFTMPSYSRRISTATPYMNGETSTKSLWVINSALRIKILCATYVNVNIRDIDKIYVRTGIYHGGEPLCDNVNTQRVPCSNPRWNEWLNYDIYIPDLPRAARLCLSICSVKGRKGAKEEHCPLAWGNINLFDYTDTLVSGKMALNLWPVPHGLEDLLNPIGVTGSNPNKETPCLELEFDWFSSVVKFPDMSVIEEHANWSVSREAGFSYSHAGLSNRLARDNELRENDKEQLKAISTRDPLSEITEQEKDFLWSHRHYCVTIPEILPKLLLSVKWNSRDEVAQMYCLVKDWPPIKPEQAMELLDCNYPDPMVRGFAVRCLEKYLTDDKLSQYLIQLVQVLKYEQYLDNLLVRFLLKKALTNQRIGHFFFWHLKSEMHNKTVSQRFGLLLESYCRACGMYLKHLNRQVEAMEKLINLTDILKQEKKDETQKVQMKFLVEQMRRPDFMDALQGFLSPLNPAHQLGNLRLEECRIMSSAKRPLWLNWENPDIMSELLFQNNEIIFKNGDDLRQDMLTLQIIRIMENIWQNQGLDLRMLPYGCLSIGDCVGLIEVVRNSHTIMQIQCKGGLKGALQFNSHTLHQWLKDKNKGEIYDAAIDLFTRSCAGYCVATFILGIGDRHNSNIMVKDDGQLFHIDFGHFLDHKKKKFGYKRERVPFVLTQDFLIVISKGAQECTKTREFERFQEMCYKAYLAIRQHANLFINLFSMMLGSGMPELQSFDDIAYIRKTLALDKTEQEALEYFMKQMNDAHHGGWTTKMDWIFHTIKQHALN
Sequence of PIK3CG (human) (P48736 whole entry, looked up): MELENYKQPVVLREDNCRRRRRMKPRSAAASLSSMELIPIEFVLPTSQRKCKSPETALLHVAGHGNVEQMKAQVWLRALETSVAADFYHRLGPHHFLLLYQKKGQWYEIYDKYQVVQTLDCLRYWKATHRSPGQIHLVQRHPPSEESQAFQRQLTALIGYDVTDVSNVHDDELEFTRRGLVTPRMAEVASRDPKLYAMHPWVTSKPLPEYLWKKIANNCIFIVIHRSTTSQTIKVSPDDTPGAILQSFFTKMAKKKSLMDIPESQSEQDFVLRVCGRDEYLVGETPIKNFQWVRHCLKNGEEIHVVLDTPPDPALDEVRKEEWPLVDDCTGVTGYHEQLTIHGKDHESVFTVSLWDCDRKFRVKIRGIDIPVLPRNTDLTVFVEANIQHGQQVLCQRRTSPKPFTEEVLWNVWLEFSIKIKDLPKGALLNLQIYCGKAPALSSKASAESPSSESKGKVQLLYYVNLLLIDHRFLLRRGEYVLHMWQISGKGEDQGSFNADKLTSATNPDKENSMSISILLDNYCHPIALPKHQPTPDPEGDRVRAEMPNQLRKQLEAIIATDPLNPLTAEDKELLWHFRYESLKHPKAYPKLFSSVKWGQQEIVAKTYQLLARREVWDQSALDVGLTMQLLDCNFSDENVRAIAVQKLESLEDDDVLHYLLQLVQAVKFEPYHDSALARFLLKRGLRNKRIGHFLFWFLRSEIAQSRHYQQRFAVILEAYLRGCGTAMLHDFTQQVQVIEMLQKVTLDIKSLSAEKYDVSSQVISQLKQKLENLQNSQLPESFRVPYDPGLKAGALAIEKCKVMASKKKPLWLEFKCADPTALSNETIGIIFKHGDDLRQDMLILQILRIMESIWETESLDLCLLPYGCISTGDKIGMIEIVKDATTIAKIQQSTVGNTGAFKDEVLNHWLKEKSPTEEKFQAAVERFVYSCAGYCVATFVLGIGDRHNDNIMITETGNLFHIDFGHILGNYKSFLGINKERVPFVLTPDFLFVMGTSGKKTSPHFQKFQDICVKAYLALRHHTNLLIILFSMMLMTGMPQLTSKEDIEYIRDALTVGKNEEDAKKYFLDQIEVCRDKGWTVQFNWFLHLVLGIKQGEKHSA
Sequence of PIK3CB (Human) (P42338 whole entry, looked up): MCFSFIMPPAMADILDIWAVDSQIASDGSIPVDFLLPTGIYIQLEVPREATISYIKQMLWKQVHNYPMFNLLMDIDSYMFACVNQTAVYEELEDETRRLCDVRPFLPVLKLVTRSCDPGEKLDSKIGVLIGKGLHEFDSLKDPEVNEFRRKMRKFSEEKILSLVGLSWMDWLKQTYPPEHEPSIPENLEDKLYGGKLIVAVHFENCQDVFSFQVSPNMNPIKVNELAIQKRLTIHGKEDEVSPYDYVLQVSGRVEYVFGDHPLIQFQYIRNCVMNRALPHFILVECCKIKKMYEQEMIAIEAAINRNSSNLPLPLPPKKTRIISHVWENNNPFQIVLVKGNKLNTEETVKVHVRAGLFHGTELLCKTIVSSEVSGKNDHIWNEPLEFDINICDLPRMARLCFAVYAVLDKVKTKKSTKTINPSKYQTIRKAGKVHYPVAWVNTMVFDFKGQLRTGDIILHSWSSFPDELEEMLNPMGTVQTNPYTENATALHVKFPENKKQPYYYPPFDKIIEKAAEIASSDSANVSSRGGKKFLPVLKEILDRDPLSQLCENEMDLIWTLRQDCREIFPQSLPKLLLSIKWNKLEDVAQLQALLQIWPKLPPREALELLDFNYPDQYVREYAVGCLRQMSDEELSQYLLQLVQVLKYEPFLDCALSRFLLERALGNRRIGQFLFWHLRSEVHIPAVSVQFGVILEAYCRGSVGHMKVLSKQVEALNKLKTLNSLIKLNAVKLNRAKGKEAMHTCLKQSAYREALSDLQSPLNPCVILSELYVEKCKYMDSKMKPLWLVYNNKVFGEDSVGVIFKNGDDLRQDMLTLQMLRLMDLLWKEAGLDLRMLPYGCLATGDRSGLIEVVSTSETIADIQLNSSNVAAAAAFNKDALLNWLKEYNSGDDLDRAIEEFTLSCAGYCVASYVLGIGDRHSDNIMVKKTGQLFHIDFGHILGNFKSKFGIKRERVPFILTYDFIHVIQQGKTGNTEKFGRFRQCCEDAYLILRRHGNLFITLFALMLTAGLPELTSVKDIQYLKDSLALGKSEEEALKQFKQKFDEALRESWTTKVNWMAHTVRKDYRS

| SMILES | IC50 (PIK3CG (human)) [nM] | IC50 (PIK3CA (human)) [nM] | IC50 (PIK3CB (Human)) [nM] | IC50 (PIK3CD (Human)) [nM] |
| --- | --- | --- | --- | --- |
| CC(C)(C)CN(Cc1cc2nc(-c3cccc4[nH]ncc34)nc(N3CCOCC3)c2s1)c1ncc(C(=O)NO)cn1 | – | 100 to 1000 | – | – |
| Cn1cc(CNc2cc3nc(-c4cccc5[nH]ncc45)nc(N4CCOCC4)c3s2)c2cc(C(=O)NO)ccc21 | – | < 100 | – | – |
| O=C(CCCNCc1cc2nc(-c3cccc4[nH]ncc34)nc(N3CCOCC3)c2s1)NO | – | 100 to 1000 | – | – |
| CC(=O)Nc1ccc(-c2nc(N3CCOCC3)c3sc(CN(C)c4ncc(C(=O)NO)cn4)cc3n2)cn1 | – | < 100 | – | – |
| CC(=O)NCCN(Cc1cc2nc(-c3cccc4[nH]ncc34)nc(N3CCOCC3)c2s1)c1ncc(C(=O)NO)cn1 | – | < 100 | – | – |
| O=C(/C=C/c1ccc(NCc2cc3nc(-c4cccc5[nH]ncc45)nc(N4CCOCC4)c3s2)cc1)NO | – | < 100 | – | – |
| CN(Cc1cc2nc(-c3cn[nH]c3)nc(N3CCOCC3)c2s1)c1ncc(C(=O)NO)cn1 | – | 100 to 1000 | – | – |
| CC1CN(c2nc(-c3cccc4[nH]ncc34)nc3cc(CN(C)c4ncc(C(=O)NO)cn4)sc23)CC(C)O1 (stereo unspecified) | – | 100 to 1000 | – | – |
| CN(Cc1cc2nc(-c3cnc(CN)nc3)nc(N3CCOCC3)c2s1)c1ncc(C(=O)NO)cn1 | – | < 100 | – | – |
| CN(CCCC(=O)NO)Cc1cc2nc(-c3cccc4[nH]ncc34)nc(N3CCOCC3)c2s1 | – | 100 to 1000 | – | – |

Results, then the compound that gave them:

| IC50 (PIK3CG (human)) [nM] | IC50 (PIK3CA (human)) [nM] | IC50 (PIK3CB (Human)) [nM] | IC50 (PIK3CD (Human)) [nM] | SMILES |
| --- | --- | --- | --- | --- |
| < 100 | < 100 | < 100 | 100 to 1000 | O=C(NO)c1cnc(N2CCN(Cc3cc4nc(-c5cccc6[nH]ncc56)nc(N5CCOCC5)c4s3)CC2)nc1 |
| – | < 100 | < 100 | – | O=C(NO)c1cnc(N(CCO)Cc2cc3nc(-c4cccc5[nH]ncc45)nc(N4CCOCC4)c3s2)nc1 |
| < 100 | < 100 | < 100 | < 100 | O=C(NO)c1cnc(NCc2cc3nc(-c4cccc5[nH]ncc45)nc(N4CCOCC4)c3s2)nc1 |
| < 100 | < 100 | < 100 | < 100 | CN(Cc1cc2nc(-c3cccc4[nH]ncc34)nc(N3CCOCC3)c2s1)c1ncc(C(=O)NO)cn1 |
| – | < 100 | – | – | CN(Cc1cc2nc(-c3cccc4[nH]ncc34)nc(N3CCOCC3)c2s1)CC1CCN(c2ncc(C(=O)NO)cn2)CC1 |
| – | < 100 | – | – | O=C(NO)c1cnc(N2CCC(CNc3cc4nc(-c5cccc6[nH]ncc56)nc(N5CCOCC5)c4s3)CC2)nc1 |
